Data taken from ChEMBL document CHEMBL4376829, “Discovery and biological evaluation of vinylsulfonamide derivatives as highly potent, covalent TEAD autopalmitoylation inhibitors” (Eur J Med Chem, 2019).
Activity calls are given as the source filed them. The rule behind the calls is not given here.

How the values were obtained:
[1] = species: Homo sapiens; experiment: Inhibition of full-length recombinant human PKA at 10 uM using LRRASLG as substrate after 40 mins by in presence of [gamma33P]ATP by scintillation counting method relative to control
[2] = molecular target: Histone-lysine N-methyltransferase SETD7 (Homo sapiens) (UniProt Q8WTS6); experiment: Inhibition of human SET7 at 10 uM relative to control
[3] = molecular target: Cyclin-dependent kinase 14/Cyclin-Y (Homo sapiens) (UniProt O94921+Q8ND76); experiment: Inhibition of human CDK14/cyclinY at 10 uM by radiometric assay relative to control; assay type: protein-complex assay
[4] = molecular target: Wee1-like protein kinase (Homo sapiens) (UniProt P30291); experiment: Inhibition of recombinant human Wee1 (214 to end residues) at 10 uM using LSNLYHQGKFLQTFCGSPLYRRR as substrate measured after 40 mins in presence of [gamm33P]ATP by scintillation counting method relative to control
[5] = molecular target: Tyrosine-protein kinase Fes/Fps (Homo sapiens) (UniProt P07332); experiment: Inhibition of recombinant human FES (2 to end residues) at 10 uM using poly(Glu, Tyr) 4:1 as substrate measured after 40 mins in presence of [gamma33P]ATP by scintillation counting method relative to control
[6] = molecular target: Serine/threonine-protein kinase WNK1 (Homo sapiens) (UniProt Q9H4A3); experiment: Inhibition of recombinant human WNK1 (1 to 491 residues) at 10 uM using myelin basic protein as substrate measured after 120 mins in presence of [gamm33P]ATP by scintillation counting method relative to control
[7] = molecular target: Serine/threonine-protein kinase TAO1 (Homo sapiens) (UniProt Q7L7X3); experiment: Inhibition of recombinant human TAO1 (1 to 327 residues) at 10 uM using myelin basic protein as substrate measured after 40 mins in presence of [gamma33P]ATP by scintillation counting method relative to control
[8] = molecular target: Serine/threonine-protein kinase STK11 (Homo sapiens) (UniProt Q15831); experiment: Inhibition of recombinant full-length human LKB1 at 10 uM using LSNLYHQGKFLQTFCGSPLYRRR as substrate measured after 40 mins in presence of [gamm33P]ATP by scintillation counting method relative to control
Chain of Serine/threonine-protein kinase STK11 (Homo sapiens) (Q15831 whole entry): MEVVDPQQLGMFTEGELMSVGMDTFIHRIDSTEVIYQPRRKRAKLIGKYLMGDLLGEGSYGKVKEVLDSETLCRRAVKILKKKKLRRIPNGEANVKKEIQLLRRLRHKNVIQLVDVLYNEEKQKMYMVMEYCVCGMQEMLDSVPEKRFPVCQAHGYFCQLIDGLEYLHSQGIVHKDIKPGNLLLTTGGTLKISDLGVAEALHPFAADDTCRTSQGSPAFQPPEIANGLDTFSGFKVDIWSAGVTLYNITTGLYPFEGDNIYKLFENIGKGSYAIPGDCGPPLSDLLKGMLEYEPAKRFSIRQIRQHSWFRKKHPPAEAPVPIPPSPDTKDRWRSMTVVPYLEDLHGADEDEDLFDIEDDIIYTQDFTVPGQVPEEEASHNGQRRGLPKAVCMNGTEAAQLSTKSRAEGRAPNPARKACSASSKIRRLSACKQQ

[9] = molecular target: Fatty acid-binding protein, heart (Homo sapiens) (UniProt P05413); experiment: Binding affinity to FABP3 (unknown origin) at 1:1 ratio by fluorescence based thermal shift assay
Chain of Fatty acid-binding protein, heart (Homo sapiens) (P05413 2-133 limits assumed): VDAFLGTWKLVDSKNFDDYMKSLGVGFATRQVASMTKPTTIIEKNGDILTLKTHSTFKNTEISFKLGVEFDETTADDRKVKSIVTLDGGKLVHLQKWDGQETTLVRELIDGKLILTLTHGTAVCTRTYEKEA

[10] = species: Homo sapiens; experiment: Inhibition of full length recombinant human PRAK R291E mutant at 10 uM using KKLRRTLSVA as substrate after 40 mins in presence of [gamma33P]ATP by scintillation counting method relative to control
[11] = molecular target: Tyrosine-protein kinase CSK (Homo sapiens) (UniProt P41240); experiment: Inhibition of recombinant full length human CSK at 10 uM using poly(Glu,Tyr) as substrate measured after 40 mins in presence of [gamma33P]ATP by scintillation counting method relative to control
[12] = molecular target: Myosin light chain kinase, smooth muscle (Homo sapiens) (UniProt Q15746); experiment: Inhibition of recombinant human MLCK (1425 to 1771 residues) at 10 uM using […] as substrate measured after 40 mins in presence of [gamma33P]ATP by scintillation counting method relative to control
[13] = molecular target: Tyrosine-protein kinase ITK/TSK (Homo sapiens) (UniProt Q08881); experiment: Inhibition of recombinant human ITK (352 to 617 residues) at 10 uM using myelin basic protein as substrate measured after 40 mins in presence of [gamm33P]ATP by scintillation counting method relative to control
[14] = molecular target: Serine/threonine-protein kinase TAO2 (Homo sapiens) (UniProt Q9UL54); experiment: Inhibition of recombinant human TAO2 (1 to 320 residues) at 10 uM using myelin basic protein as substrate measured after 40 mins in presence of [gamm33P]ATP by scintillation counting method relative to control
[15] = species: Homo sapiens; experiment: Inhibition of recombinant full-length human PI3K p120gamma R459Q mutant at 10 uM using phosphatidylinositol-4, 5-bisphosphate as substrate measured after 40 mins by fluorescence assay relative to control
[16] = molecular target: Serine-protein kinase ATM (Homo sapiens) (UniProt Q13315); experiment: Inhibition of recombinant full-length human ATM at 10 uM using GST-cMyc-p53 as substrate measured after 40 mins by ELISA method relative to control
Chain of Serine-protein kinase ATM (Homo sapiens) (Q13315 whole entry): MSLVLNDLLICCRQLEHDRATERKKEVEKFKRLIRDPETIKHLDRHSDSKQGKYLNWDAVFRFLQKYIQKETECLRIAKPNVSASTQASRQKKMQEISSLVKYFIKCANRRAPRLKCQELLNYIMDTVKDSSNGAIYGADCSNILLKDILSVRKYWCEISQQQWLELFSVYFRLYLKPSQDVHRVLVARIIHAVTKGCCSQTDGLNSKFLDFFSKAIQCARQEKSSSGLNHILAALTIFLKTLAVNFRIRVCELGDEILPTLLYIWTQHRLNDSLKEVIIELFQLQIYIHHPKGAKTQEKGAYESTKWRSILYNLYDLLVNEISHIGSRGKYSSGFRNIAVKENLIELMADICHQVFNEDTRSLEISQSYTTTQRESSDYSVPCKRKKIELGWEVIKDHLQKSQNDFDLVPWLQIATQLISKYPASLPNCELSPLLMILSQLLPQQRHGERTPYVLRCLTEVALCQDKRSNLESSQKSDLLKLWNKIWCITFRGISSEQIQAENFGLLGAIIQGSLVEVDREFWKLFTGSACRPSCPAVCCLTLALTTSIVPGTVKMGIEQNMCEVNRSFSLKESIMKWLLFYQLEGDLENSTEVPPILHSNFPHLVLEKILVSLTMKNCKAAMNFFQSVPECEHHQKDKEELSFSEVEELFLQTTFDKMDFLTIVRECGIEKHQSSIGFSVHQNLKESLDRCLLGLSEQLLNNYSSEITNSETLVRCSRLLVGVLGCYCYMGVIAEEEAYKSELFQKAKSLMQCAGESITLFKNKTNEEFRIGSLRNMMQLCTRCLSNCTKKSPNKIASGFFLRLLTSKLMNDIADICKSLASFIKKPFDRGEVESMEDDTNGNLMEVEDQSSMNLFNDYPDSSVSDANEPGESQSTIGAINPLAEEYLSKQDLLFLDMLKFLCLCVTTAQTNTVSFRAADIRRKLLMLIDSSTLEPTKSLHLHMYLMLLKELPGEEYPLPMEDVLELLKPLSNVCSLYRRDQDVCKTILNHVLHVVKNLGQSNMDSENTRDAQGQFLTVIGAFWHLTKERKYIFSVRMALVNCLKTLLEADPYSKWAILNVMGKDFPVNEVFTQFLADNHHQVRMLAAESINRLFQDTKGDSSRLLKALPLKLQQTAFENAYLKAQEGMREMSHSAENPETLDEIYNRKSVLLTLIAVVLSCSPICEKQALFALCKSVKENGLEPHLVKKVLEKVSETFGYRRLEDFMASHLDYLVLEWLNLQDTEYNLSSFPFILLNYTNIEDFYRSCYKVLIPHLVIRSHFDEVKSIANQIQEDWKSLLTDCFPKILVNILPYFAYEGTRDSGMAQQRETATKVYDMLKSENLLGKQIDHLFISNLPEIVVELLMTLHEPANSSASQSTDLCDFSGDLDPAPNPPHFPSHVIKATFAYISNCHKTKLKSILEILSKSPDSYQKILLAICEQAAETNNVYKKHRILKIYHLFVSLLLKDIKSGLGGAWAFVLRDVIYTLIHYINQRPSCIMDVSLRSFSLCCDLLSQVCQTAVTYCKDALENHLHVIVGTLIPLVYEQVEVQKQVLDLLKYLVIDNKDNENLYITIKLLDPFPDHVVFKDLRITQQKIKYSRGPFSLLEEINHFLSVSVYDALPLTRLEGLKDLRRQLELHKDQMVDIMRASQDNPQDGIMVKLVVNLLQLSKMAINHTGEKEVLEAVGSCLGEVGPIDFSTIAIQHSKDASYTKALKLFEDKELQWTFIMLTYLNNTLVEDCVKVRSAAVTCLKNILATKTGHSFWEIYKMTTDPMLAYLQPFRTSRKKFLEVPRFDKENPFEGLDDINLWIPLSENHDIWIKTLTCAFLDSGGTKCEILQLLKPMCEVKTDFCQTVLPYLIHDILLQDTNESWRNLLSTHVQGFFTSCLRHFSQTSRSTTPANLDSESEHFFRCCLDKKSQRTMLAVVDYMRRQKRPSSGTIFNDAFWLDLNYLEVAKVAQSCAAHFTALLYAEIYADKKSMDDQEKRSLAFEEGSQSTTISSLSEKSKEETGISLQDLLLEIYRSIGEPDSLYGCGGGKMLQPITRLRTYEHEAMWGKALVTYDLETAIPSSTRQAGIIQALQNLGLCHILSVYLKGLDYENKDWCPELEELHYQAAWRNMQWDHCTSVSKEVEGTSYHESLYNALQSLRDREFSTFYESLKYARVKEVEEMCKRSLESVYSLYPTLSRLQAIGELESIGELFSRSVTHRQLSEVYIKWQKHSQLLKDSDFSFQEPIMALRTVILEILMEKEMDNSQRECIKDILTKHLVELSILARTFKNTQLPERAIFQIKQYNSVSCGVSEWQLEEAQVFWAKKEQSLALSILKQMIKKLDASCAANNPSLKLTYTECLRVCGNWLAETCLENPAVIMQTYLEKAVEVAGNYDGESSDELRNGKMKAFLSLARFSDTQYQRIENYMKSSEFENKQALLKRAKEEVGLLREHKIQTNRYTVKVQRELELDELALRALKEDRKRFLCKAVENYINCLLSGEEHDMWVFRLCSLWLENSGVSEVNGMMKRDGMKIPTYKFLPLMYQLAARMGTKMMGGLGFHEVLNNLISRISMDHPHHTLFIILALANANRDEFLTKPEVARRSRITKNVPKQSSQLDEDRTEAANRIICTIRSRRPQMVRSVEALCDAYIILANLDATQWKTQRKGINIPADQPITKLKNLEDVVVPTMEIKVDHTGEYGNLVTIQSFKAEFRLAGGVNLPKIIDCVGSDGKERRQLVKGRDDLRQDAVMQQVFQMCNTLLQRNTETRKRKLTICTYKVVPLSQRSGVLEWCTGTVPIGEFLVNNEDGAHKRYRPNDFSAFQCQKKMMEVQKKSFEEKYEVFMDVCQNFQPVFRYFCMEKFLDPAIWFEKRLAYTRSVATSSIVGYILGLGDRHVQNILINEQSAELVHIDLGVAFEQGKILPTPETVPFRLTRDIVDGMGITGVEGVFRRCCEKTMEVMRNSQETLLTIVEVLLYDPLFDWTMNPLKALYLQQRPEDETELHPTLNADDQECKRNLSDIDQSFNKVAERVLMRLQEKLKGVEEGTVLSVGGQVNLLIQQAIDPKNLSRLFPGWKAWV

[17] = molecular target: CDK2/Cyclin A2 (Homo sapiens) (UniProt P24941+P20248); experiment: Inhibition of recombinant full-length human CDK2/cyclinA at 10 uM using histone H1 as substrate measured after 40 mins in presence of [gamma33P]ATP by scintillation counting method relative to control; assay type: protein-complex assay
[18] = tested on: TGF-beta receptor type-1 (Homo sapiens), P36897 [T204D]; experiment: Inhibition of recombinant human TGFBR1 T204D mutant (200 to end residues) at 10 uM using casein as substrate measured after 40 mins in presence of [gamm33P]ATP by scintillation counting method relative to control
[19] = molecular target: CDK9/cyclin T1 (Homo sapiens) (UniProt O60563+P50750); experiment: Inhibition of recombinant full length human CDK9/cyclinT1 at 10 uM using KTFCGTPEYLAPEVRREPRILSEEEQEMFRDFDYIADWC as substrate measured after 40 mins in presence of [gamma33P]ATP by scintillation counting method relative to control; assay type: protein-complex assay
[20] = molecular target: Serine/threonine-protein kinase VRK1 (Homo sapiens) (UniProt Q99986); experiment: Inhibition of human VRK1 at 10 uM by radiometric assay relative to control
[21] = molecular target: Insulin-like growth factor 1 receptor (Homo sapiens) (UniProt P08069); experiment: Inhibition of recombinant human IGF1R (959 to end residues) at 10 uM using KKKSPGEYVNIEFG as substrate after 40 mins in presence of [gamma33P]ATP by scintillation counting method relative to control
[22] = species: Homo sapiens; experiment: Inhibition of recombinant human Mer H628Q/R794A mutant (557 to 882 residues) at 10 uM using GGMEDIYFEFMGGKKK as substrate measured after 40 mins in presence of [gamma33P]ATP by scintillation counting method relative to control
[23] = molecular target: Insulin receptor-related protein (Homo sapiens) (UniProt P14616); experiment: Inhibition of recombinant human IRR (943 to 1266 residues) at 10 uM using myelin basic protein as substrate measured after 40 mins in presence of [gamma33P]ATP by scintillation counting method relative to control
Chain of Insulin receptor-related protein (Homo sapiens) (P14616 27-742 limits assumed): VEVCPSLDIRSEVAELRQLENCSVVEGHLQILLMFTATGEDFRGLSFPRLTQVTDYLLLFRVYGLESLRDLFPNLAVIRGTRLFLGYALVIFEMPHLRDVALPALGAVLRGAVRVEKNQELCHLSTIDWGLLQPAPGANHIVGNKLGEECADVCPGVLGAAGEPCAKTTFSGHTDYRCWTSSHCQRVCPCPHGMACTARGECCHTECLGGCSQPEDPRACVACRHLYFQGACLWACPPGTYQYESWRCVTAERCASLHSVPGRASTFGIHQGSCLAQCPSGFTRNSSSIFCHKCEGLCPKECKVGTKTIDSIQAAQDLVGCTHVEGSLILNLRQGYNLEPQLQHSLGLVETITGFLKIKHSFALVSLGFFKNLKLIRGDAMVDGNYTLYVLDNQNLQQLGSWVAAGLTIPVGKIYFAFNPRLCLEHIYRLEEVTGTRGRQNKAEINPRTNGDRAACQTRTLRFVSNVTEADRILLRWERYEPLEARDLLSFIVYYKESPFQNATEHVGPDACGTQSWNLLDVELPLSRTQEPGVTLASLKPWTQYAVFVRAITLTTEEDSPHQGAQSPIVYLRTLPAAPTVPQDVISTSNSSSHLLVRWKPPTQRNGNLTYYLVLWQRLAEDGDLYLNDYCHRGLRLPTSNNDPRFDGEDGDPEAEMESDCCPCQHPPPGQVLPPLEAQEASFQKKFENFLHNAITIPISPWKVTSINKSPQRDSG
Chain of Insulin receptor-related protein (Homo sapiens) (P14616 747-1297 limits assumed): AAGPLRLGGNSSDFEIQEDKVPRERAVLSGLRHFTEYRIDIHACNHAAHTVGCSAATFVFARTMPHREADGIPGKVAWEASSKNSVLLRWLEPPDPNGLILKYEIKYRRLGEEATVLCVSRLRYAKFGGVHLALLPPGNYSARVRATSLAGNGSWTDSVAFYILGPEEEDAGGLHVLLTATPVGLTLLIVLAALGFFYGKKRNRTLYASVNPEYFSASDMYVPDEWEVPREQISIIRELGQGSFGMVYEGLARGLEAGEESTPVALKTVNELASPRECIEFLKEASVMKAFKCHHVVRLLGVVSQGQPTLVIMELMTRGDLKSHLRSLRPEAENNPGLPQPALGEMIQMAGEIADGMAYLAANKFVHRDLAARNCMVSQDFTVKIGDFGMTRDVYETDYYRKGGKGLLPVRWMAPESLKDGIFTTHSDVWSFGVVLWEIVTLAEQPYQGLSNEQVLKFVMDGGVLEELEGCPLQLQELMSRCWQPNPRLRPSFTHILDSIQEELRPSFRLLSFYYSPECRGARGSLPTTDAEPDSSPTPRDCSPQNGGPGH

[24] = molecular target: ALK tyrosine kinase receptor (Homo sapiens) (UniProt Q9UM73); experiment: Inhibition of recombinant human ALK (1058 to end residues) at 10 uM using KKKSPGEYVNIEF as substrate after 40 mins in presence of [gamma33P]ATP by scintillation counting method relative to control
[25] = molecular target: Serine/threonine-protein kinase 17B (Homo sapiens) (UniProt O94768); experiment: Inhibition of full-length recombinant human DRAK2 at 10 uM using KKRPQRRYSNVF as substrate after 120 mins by in presence of [gamma33P]ATP by scintillation counting method relative to control

C=CS(=O)(=O)Nc1ccc(Cc2ccc3ccccc3c2)cc1
inhibition [1]: 1% | inhibition [2]: 2% | inhibition [3]: 1% | inhibition [4]: -4% | inhibition [5]: 0% | inhibition [6]: -10% | inhibition [7]: -10% | inhibition [8]: -3% | Activity [9]: Active | inhibition [10]: 2% | inhibition [11]: -1% | inhibition [12]: 5% | inhibition [13]: 6% | inhibition [14]: 22% | inhibition [15]: 5% | inhibition [16]: 2% | inhibition [17]: 10% | inhibition [18]: -2% | inhibition [19]: 3% | inhibition [20]: 3% | inhibition [21]: -6% | inhibition [22]: 13% | inhibition [23]: 13% | inhibition [24]: 0% | inhibition [25]: -3%
